Reference: patent publication US20260069584A1, “METHODS OF TREATING CHRONIC MYELOID LEUKEMIA USING THE TYROSINE KINASE INHIBITOR VODOBATINIB” (Sun Pharma Advanced Research Company Ltd., priority 2022, published 2026)

Legend:
[1] = Pharmacokinetics in CML patients by dose cohort; settings: for Cmin: cycle 2, CML patients, oral; for AUC(0-t) / Cmax: human, plasma, po
Method: A±5 minutes window permitted till 4 hours PK sample collection. A±10 minutes window permitted for subsequent PK sample collection. Days 3, 8, 15, and 22 of Cycle 1:30 (±10) minutes Predose only. […] A #5 minutes window permitted till 4 hours PK sample collection. A #10 minutes window permitted for subsequent PK sample collection. Days 8, 15, and 22 of Cycle 2:30 (±10) minutes Predose only. Cycle 3 onwards: Predose samples on Day 1.
Pharmacokinetic analysis was performed using non-compartmental analysis. The actual elapsed time from dose was used in the final PK parameter calculations. Plasma concentrations and PK parameters for the compound of Formula I were listed and summarized by dose cohort using descriptive statistics (n, mean, standard deviation, minimum, median, and maximum). Geometric mean and geometric coefficient of variation were calculated for PK parameters. Additionally, mean concentration profiles by dose cohort and cycle were illustrated. Dose proportionality of Cmax and AUC(0-24) was assessed graphically for Cycle 1 and Cycle 2. Dose proportionality was statistically evaluated using the power model approach, whenever the number of patients was at least 3 for a given cohort. Time to steady-state (Ctrough) was evaluated graphically. Differences among dose levels in CL/F and V/F, and dose-normalized Cmax and AUC(0-24) were explored using an analysis of variance.
The PK parameters for the study were summarized by treatment using descriptive (N, n, mean, standard deviation [SD], coefficient of variation [CV] % minimum, median, maximum, geometric mean and CV %) statistics, except for Tmax. For Tmax, the number of subjects, minimum, median, and maximum are reported.

[2] = Parts B and C pooled (n=59): safety; settings: in vivo
Excerpt: Fifty-five of the 59 subjects (93.2%) experienced an AE during the study, of which 62.7% of AEs (n=37) were suspected to be related to the compound of Formula I treatment. Most frequently reported AEs related to the compound of Formula I included thrombocytopenia, neutropenia, nausea, diarrhea, pruritus, fatigue and myalgia. The compound of Formula I-related AEs was generally low grade and resolved with drug hold or dose reduction. […] The AEs were distributed across all the dosing cohorts without any safety trends or association with dose(s). The DLTs (except for 1 event of fatal intracranial hemorrhage) were non-serious AEs and managed well by dose delays and/or reductions. […] A total of 5 subjects died during the study or within 30 days after the last dose of the study drug, which is not unexpected given that all patients enrolled in the study had advanced and heavily pretreated CML. The AEs related to the compound of Formula I treatment were consistent with the advanced CML population with multiple comorbidities and concomitant medications during the study.

With `Cc1ccc(C(=O)NNC(=O)c2c(C)cccc2Cl)cc1C#Cc1cnc2ccccc2c1` [compound of Formula I, N′-(2-chloro-6-methylbenzoyl)-4-methyl-3-[2-(3-quinolyl)ethynyl]-benzohydrazide] the Cmin ([1]; dose cohort 12) was 61.8, the Cmin ([1]; dose cohort 24) was 114 and the Cmin ([1]; dose cohort 48) was 261. The Cmin ([1]; dose cohort 66) was 102.7, the Cmin ([1]; dose cohort 90) was 363 and the Cmin ([1]; dose cohort 126) was 831. The Cmin ([1]; dose cohort 174) was 254, the Cmin ([1]; dose cohort 204) was 427 and the “increase of mean exposures (AUC) with dose” value ([1]; doses above 174 mg) was “sub-proportional increase or plateauing of exposures”. It also gave an AUC(0-t) ([1]; 12 mg) of 3330 ng·h/mL, a Cmax ([1]; 12 mg) of 685 ng/mL and an AUC(0-t) ([1]; 24 mg) of 5070 ng·h/mL. It also gave a Cmax ([1]; 24 mg) of 589 ng/mL, an AUC(0-t) ([1]; 48 mg) of 13700 ng·h/mL and a Cmax ([1]; 48 mg) of 1090 ng/mL. The AUC(0-t) ([1]; 66 mg) was 7780 ng·h/mL, the Cmax ([1]; 66 mg) was 830 ng/mL and the AUC(0-t) ([1]; 90 mg) was 22800 ng·h/mL. It also gave a Cmax ([1]; 90 mg) of 2860 ng/mL, an AUC(0-t) ([1]; 126 mg) of 50300 ng·h/mL and a Cmax ([1]; 126 mg) of 4100 ng/mL. For the same molecule, the AUC(0-t) ([1]; 174 mg) was 35700 ng·h/mL, the Cmax ([1]; 174 mg) was 4210 ng/mL and the “steady state reached (trough concentrations)” value ([1]; majority of the subjects) was at most 3 days. The “accumulation at steady state” value ([1]; once-daily dosing) was “no low or minimal accumulation”, the “AEs suspected to be related to treatment” value ([2]; human) was 62.7% and the “subjects who died during the study or within 30 days after the last dose” value ([2]; human) was 5 subjects. For the same molecule, the “subjects who experienced an AE” value ([2]; human) was 93.2%, the “subjects who experienced an SAE” value ([2]; human) was 34% and the “subjects with grade 3 or higher-grade AEs” value ([2]; human) was “Approximately 64.4%”. The “relatedness of cardiac AEs” value [2] was “considered unrelated”.
